{
  "source": "patent US6352714B1",
  "about": "“Method of producing a metal nutrient for an animal feed” (DER, Inc., priority 2000, dated 2002)",
  "test_system": "nursery pigs",
  "assay": "Chromium supplementation feeding study in nursery pigs (growth performance)",
  "type": "in vivo",
  "settings": "diet with 400 ppb chromium",
  "description": "A study was made to determine the effects of chromium leather hydrolysate supplementation in nursery pigs, as compared with other complexes, namely chromium picolinate and a yeast chromium complex. In this study, three groups of forty pigs each, with a mean weaning age of 17.6 days, were fed diets containing the chromium leather hydrolysate proteinate, chromium tripicolinate, or yeast chromium complex. In addition, a control group of forty pigs were not fed a supplement. In all cases, the chromium containing complex contained 400 ppb of chromium. Data relating to the average daily gains were obtained over three phases with Phase I being 0-7 days, Phase II being 8-14 days, and Phase III being 15-21 days.\nIn the above Table, ADG is “average daily gain” and ADFI is “average daily feed intake”.",
  "data": [
    {"substance": "chromium tripicolinate [Chromium picolinate]", "values": [
      {"measurement": "ADFI (average daily feed intake)", "setting": "Phase I, 0-7 days", "result": 545, "unit": "gms"},
      {"measurement": "ADG (average daily gain)", "setting": "Phase I, 0-7 days", "result": 250, "unit": "gms"},
      {"measurement": "Gain/Feed", "setting": "Phase I, 0-7 days", "result": 0.54},
      {"measurement": "ADFI (average daily feed intake)", "setting": "Phase II, 8-14 days", "result": 1.43, "unit": "kg"},
      {"measurement": "ADG (average daily gain)", "setting": "Phase II, 8-14 days", "result": 0.92, "unit": "kg"},
      {"measurement": "Gain/Feed", "setting": "Phase II, 8-14 days", "result": 0.67},
      {"measurement": "ADFI (average daily feed intake)", "setting": "Phase III, 15-21 days", "result": 2.61},
      {"measurement": "ADG (average daily gain)", "setting": "Phase III, 15-21 days", "result": 1.26, "unit": "kg"},
      {"measurement": "Gain/Feed", "setting": "Phase III, 15-21 days", "result": 0.48}
    ]}
  ]
}
